From paper PMC3391587 (Journal of Nuclear Medicine, 2012)

Test: HPLC radiometabolite analysis of arterial plasma after [^18F]DPA-714 injection
Type: in vivo
Conditions: rat arterial plasma, mean ± SD

CCN(CC)C(=O)Cc1c(-c2ccc(OCC[18F])cc2)nn2c(C)cc(C)nc12 [[^18F]DPA-714, N,N-diethyl-2-(2-(4-(2-(^18F)-fluoroethoxy)phenyl)-5,7-dimethylpyrazolo[1,5-a]pyrimidin-3-yl)acetamide]
% [^18F]DPA-714 (parent) in plasma (P.I. time 12 (min), N=7): 68 ± 7.4%
% [^18F]DPA-714 (parent) in plasma (P.I. time 30 (min), N=7): 44 ± 8.9%
% [^18F]DPA-714 (parent) in plasma (P.I. time 60 (min), N=7): 27 ± 6.2%
% [^18F]DPA-714 (parent) in plasma (P.I. time 90 (min), N=5): 22 ± 17.8%
